In US20170240556A1, “BIFLUORODIOXALANE-AMINO-BENZIMIDAZOLE KINASE INHIBITORS FOR THE TREATMENT OF CANCER, AUTOIMMUNEINFLAMMATION AND CNS DISORDERS” (4SC DISCOVERY GMBH, priority 2012, published 2017):

Legend:
Assay in all cases: Proliferation Assay
Assay type in all cases: cell-based
[1] = tested on: 5637 (bladder); conditions: 72 h, read-out: IC50 inhibition of cell growth
Description: (§1) For the determination of the inhibitory capacity of compounds of the present invention (in the following: “test compound(s)”) on cell growth, cancer cells were seeded into microtitre plates, treated with different concentrations of test compound or left untreated, and after 72 h the protein content was determined as an equivalent for the cell number.
(§2) Test compounds were dissolved in 100% DMSO and predilutions in cell culture medium were prepared with a final concentration of 0.1% DMSO in medium. The cell culture medium for dilution of the test compounds, consecutive culturing of cell lines and usage during the assay was a cell line specific medium as recommended by the cell line supplier and identical for all three applications mentioned above. After a 24-hour pre-growth period of the seeded cancer cells, the test compound containing media or medium containing 0.1% DMSO as control was added to the cells. The cells were allowed to grow at 37° C. for 72 hours. In addition, all experiments contained a few plates with cells that were processed for measurement immediately after the 24 hours recovery period. These plates contained information about the cell number that existed before treatment, at time zero, and served to calculate the cytotoxicity and/or growth inhibitory effects.
(§3) After treatment, cells were precipitated by addition of 10% TCA (trichloracetic acid). Prior to fixation, the media was aspirated. After an hour of incubation at 4° C. the plates were washed twice with 400 μl of deionized water. Cells were then stained with 100 μl of a 0.08% wt/v SRB (sulforhodamine). The plates were allowed to sit for at least 30 min and washed six times with 1% acetic acid to remove unbound staining agent. The plates were left to dry at room temperature and bound SRB was solubilized with 100 μl of 10 mM Tris base. Measurement of optical density was performed at 560 nm on a Victor 2 plate reader (Perkin Elmer, Germany).
(§4) One common way to express the effect of an anticancer agent is to measure cell viability and survival in the presence of the test agent as % Treated/Control×100. The relationship between the viability and dose is called a dose response curve. Those dose response curves were determined by using algorithms developed by Oncolead GmbH & Co. KG, Munich, Germany, that can be compared to commercial applications, e.g. XLfit™ (ID Business Solutions Ltd., Guildford, UK) algorithm “205”.

[2] = tested on: C33A (cervix); conditions: Homo sapiens, C-33-A, 72 h, read-out: IC50 inhibition of cell growth
Description: as §1, §2, §3, §4

[3] = tested on: JIMT1 (breast); conditions: Homo sapiens, JIMT-1, 72 h, read-out: IC50 inhibition of cell growth
Description: as §1, §2, §3, §4

[4] = tested on: MDAMB468 (breast); conditions: Homo sapiens, MDA-MB-468, 72 h, read-out: IC50 inhibition of cell growth
Description: as §1, §2, §3, §4

[5] = tested on: SF268 (brain); conditions: Homo sapiens, SF-268, 72 h, read-out: IC50 inhibition of cell growth
Description: as §1, §2, §3, §4

[6] = tested on: SKBR3 (breast); conditions: Homo sapiens, SK-BR-3, 72 h, read-out: IC50 inhibition of cell growth
Description: as §1, §2, §3, §4

[7] = tested on: U2OS (bone); conditions: Homo sapiens, 72 h, read-out: IC50 inhibition of cell growth
Description: as §1, §2, §3, §4

Measured: IC50

COc1cccc(C(=O)Nc2nc3cc4c(cc3[nH]2)OC(F)(F)O4)c1 [Compound 56, N-(2,2-difluoro-5H-[1,3]dioxolo[4′,5′:4,5]benzo[1,2-d]imidazol-6-yl)-3-methoxybenzamide]
≤ 1000 nM: all assays above
